According to PubChem BioAssay AID463229 (Broad Institute, 2010):

Test system: INS-1E rat beta cells, no cytokines, CellTiter-Glo ATP, 48 h
Test: ATP level change in INS-1E without cytokines, dose response, counter-screen for beta-cell apoptosis protection project, INS-1E rat cells, ATP luminescence, cherry pick (AID 463229)

Compound	AC50
CCC[N+]1(CC#CCC(c2ccccc2)c2ccccc2)CCCCC1	2.03 µM
COC(=O)C1=C(C)N(Cc2ccccc2)C(=NCc2cccc(C(F)(F)F)c2)N[C@H]1c1cccc(C(F)(F)F)c1	7.34 µM
COc1cc(OC)c2cc(C(=O)N/N=C/c3ccccc3O)[nH]c2c1	8.48 µM
O=C(N/N=C(\c1ccccc1)c1ccccn1)c1ccccc1Cl	6.14 µM
Cc1ccc(S(=O)(=O)Nc2ccccc2C(=O)Nc2nc(-c3ccc(F)cc3)cs2)cc1	2.92 µM
COc1cc(NC(=O)c2ccccc2NS(=O)(=O)c2ccc(Cl)s2)cc(OC)c1	6.97 µM
COC(=O)[C@H](CC(C)C)N(Cc1ccccc1)S(=O)(=O)N(Cc1ccccc1)[C@@H](CC(C)C)C(=O)OC	15.5 µM
CCc1cc[n+](C2=C([O-])c3ccccc3C(=O)/C2=N\S(=O)(=O)c2cccs2)cc1	9.35 µM
CCN(CC)c1ccc(/C=N/NC(=O)c2nnn(-c3nonc3N)c2C(C)C)c(O)c1	1.16 µM
O=C(C1CCC1)N1CCc2cc(S(=O)(=O)Nc3ccc4c(c3)OCCO4)ccc21	7.92 µM
CCCNC1=C(N(C(C)=O)c2cccc(F)c2)C(=O)c2ccccc2C1=O	3.06 µM
Oc1ccc(COCc2ccccc2)c2cccnc12	4.28 µM
Cc1cccc(NC(=O)/C=C/c2ccc([N+](=O)[O-])s2)c1	8.56 µM
O=C(Nc1ccc(OCC(F)(F)C(F)F)c(C(F)(F)F)c1)c1ccccc1O	6.48 µM
CN1CCN(C(c2ccc(C(F)(F)F)cc2)c2cc(Cl)c3cccnc3c2O)CC1 (configuration not stated)	6.69 µM
C=C(C)C(=O)OCC(O)COc1ccc(C(C)(C)c2ccc(OCC(O)COC(=O)C(=C)C)cc2)cc1 (configuration not stated)	19.2 µM
C=CCc1cccc(/C=N/NC(=O)c2ccccc2OC)c1O	9.61 µM
Cc1cc(C)c(S(=O)(=O)/N=C2/C=C(Sc3ncn[nH]3)C(=O)c3ccccc32)cc1C	7.58 µM
O=S(=O)(C/C(=C/CO)S(=O)(=O)c1ccccc1)c1ccccc1	10.9 µM
COc1ccc(Cn2c(SCc3ccc(C)cc3)nc3cc(OC)c(OC)cc3c2=N)cc1Cl	6.89 µM
Cc1ccc(-c2c(C#N)c(N)n3c(nc4ccccc43)c2C#N)cc1	4.1 µM
C#CC[N+](C)(C)CCCCCCCCCCCC	6.1 µM
CSc1ccccc1OCc1cc(C(=O)N2CCc3c(Cl)cccc3C2)no1	6.99 µM
Cc1ccc(-c2csc(N3CCC(NS(=O)(=O)c4ccc5c(c4)OCCO5)CC3)n2)cc1	6.85 µM
COc1ccc(-c2sc3ccccc3c2-c2ccc(OCCN3CCCCC3)cc2)cc1	14.8 µM
O=C(Nc1nc(-c2ccccn2)cs1)c1cccc(-n2cnnn2)c1	7.05 µM

Compound	AC50
Cn1nnnc1N=N/C(=N/Nc1ccccc1)c1ccccc1	4.36 µM
CCN(CC)C(=O)c1cc([N+](=O)[O-])cc2c1-c1ccc([N+](=O)[O-])cc1C2=C(C#N)C#N	9.06 µM
CC1=C(CC(=O)c2ccc(Cl)cc2)C(=O)c2ccccc2C1=O	26.6 µM
Cc1nc2ccccc2nc1N/N=C/c1ccc(O)cc1O	3.6 µM
C/C(=N\NC(=O)C(c1ccccc1)c1ccccc1)c1ccccn1	8.03 µM
COc1cccc(/C=N/Nc2ncnc(Cl)c2N)c1O	4.32 µM
CCC(=O)NC(c1cccs1)c1ccc2cccnc2c1O (configuration not stated)	3.37 µM
C=CCc1cccc(/C=N/NC(=O)CCC(=O)Nc2ccc(F)cc2)c1O	10.2 µM
O=C(/C(=C/c1ccc(Cl)cc1)c1nc2ccccc2[nH]1)c1ccccc1	4.04 µM
COC(=O)C[C@]1(C(=O)OC)CN(C#N)N(c2ccc(Cl)cc2)C12c1ccccc1-c1ccccc12	4.13 µM
CCOC(=O)c1ccc(NC(=O)NCc2cccnc2)cc1	2.01 µM
Cc1ccn2c(Nc3ccccc3C)c(-c3ccccn3)nc2c1	9.55 µM
CCOC(=O)c1cnc(-n2nc(C)cc2C)nc1NNc1cc(C)nc(-c2ccccc2)n1	7.19 µM
CCCCCCCCCCCCCCCC[N+](C)(C)CCN(Cc1ccc(OC)cc1)c1ncccn1	4.23 µM
CC(=O)c1cccc(N=c2scc(-c3ccc(S(=O)(=O)N4CCOCC4)cc3)n2CCO)c1	3.22 µM
O=C(Oc1c(Cl)cc(Cl)c2cccnc12)c1cccs1	15 µM
Cc1c(C(C)C)c(=O)n(-c2ccc(S(=O)(=O)NCc3ccccc3)cc2)n1C	3.71 µM
O=C(Nc1ccc(Cc2ccncc2)cc1)c1ccc([N+](=O)[O-])o1	10.1 µM
O=C(Nc1ccc(Cl)cc1)Nc1nnc(-c2ccncc2)s1	4.78 µM
NS(=O)(=O)c1ccc(N/N=C/c2cn(-c3ccccc3)nc2-c2cccs2)c([N+](=O)[O-])c1	5.61 µM
COc1ccc(Nc2ccc3c(c2)=NC2(CCCCC2)[N+]=3[O-])cc1	7.8 µM
CCCCCCCCCCOC(=O)Cn1c(COc2cccc(C)c2)[n+](C)c2ccccc21	4.71 µM
CC#CC[N+](C)(C)CCCCCCCCCCCC	2.23 µM
CC1=NNC(=O)/C1=C\c1cn(-c2ccccc2)nc1-c1ccccc1	7.57 µM
CCN(CC)S(=O)(=O)c1ccc(Oc2ccc(S(=O)(=O)N(CC)CC)cc2)cc1	2.88 µM
C=C1CCc2c([nH]c3ccc(OCC(C)C)cc23)C1=O	7.5 µM

Compound	AC50
COc1ccc(-c2cn(Cc3ccc(C(=O)c4ccccc4)cc3)nn2)cc1	11.6 µM
CCOC(=O)c1c(NC(=O)c2cc(-c3ccc(Cl)s3)nc3ccccc23)sc(C(N)=O)c1C	11.5 µM
CNc1nc(N/N=C/c2cc3c(cc2[N+](=O)[O-])OCO3)nc(Nc2ccccc2)n1	14.2 µM
C/C(=N\NC(=O)C(C)n1nc(C)c([N+](=O)[O-])c1C)c1ccccc1O (configuration not stated)	12.5 µM
Cn1nc(C(C)(C)C)cc1C(=O)NCc1ccc2c(c1)OCO2	4.47 µM
Nc1nc(Cl)cc(N2CCC(c3cc(-c4ccc(Cl)cc4)n[nH]3)CC2)n1	5.56 µM
O=C(NCc1cccnc1)/C(=C/c1ccc(-c2ccc(Cl)cc2)o1)S(=O)(=O)c1ccccc1	6.93 µM
O=C(CNc1ccc(F)cc1)N/N=C/c1c(O)ccc2ccccc12	19.5 µM
CCN(c1ccccc1)S(=O)(=O)c1ccc(C(=O)NC2CCN(Cc3ccccc3)CC2)cc1	6.36 µM
CCCCCCCCn1c(=O)c(C(=O)OC)c(N)c2ccccc21	4.89 µM
CCOc1cc(/C=C2\COc3ccccc3C2=O)cc(Br)c1OCC(=O)N(C)C	11.1 µM
N=c1c2c(n(Cc3ccc(Cl)c(Cl)c3)c3c1CCC3)CCCC2	3.57 µM
COc1ccc(/C(C)=N/Nc2nc(C)cc(-c3ccccc3)n2)cc1	9.59 µM
CCC(=O)NC(c1ccccc1OC)c1ccc2cccnc2c1O (configuration not stated)	4.29 µM
COCCC1CCCCN1C(=O)c1cc(COc2ccc(-n3cncn3)cc2)on1 (configuration not stated)	6.35 µM
CN(Cc1cccnc1)C(=O)c1cc(COc2ccc3ncccc3c2)on1	9.3 µM
COc1cc(-c2nc3ccc(C)cn3c2NCc2ccccc2)ccc1-c1cccc(Cl)c1	4.66 µM
Clc1cccc(N=C2NN=C(c3ccc4c(c3)OCCO4)CS2)c1	1.76 µM
S=C(c1cn(CCOc2cccc3ccccc23)c2ccccc12)N1CCCC1	7.48 µM
Cc1nn(-c2nc3ccccc3[nH]2)c(=O)c2ccccc12	1.31 µM
CN(C)CCCN(C(=O)COc1ccc(Cl)cc1)c1nc2cc3c(cc2s1)OCO3	15.6 µM
CCCCCCSc1cccc(-c2nc3ccccn3c2NCc2ccccc2)c1	6.25 µM
Cc1csc2c(N3CCN(C(=O)c4ccc(C(C)(C)C)cc4)CC3)ncnc12	14.9 µM
O=C(c1cc(-c2cccc(Cl)c2)nc2ccccc12)N1CCN(c2ccccn2)CC1	12.4 µM
Cc1cc(C)nc(SCC(=O)Nc2ccnc3ccccc23)n1	7.55 µM
